Results as given in patent US20220211694A1, “QUINOLINE DERIVATIVES FOR TREATMENT OF HEAD AND NECK CANCER” (CHIA TAI TIANQING PHARMACEUTICAL GROUP CO., LTD., priority 2019, published 2022).
Counter-ions that a name gives are not always drawn.

How the values were obtained:
[1] = test system: head and neck adenocarcinoma; experiment: Clinical study of anlotinib hydrochloride capsules in recurrent/metastatic head and neck adenocarcinomas; type: in vivo, human; conditions: patients with head and neck adenocarcinoma; 12 mg once daily orally, d1-14 of each 21-day cycle
head and neck cancer = experiment: Clinical study of anlotinib with intensity modulated radiotherapy in previously untreated head and neck cancer; type: in vivo, human; conditions: patients with head and neck cancer; anlotinib 10 mg/day combined with radiotherapy
Description: Previously untreated patients with pathologically confirmed head and neck cancer, specifically including ones with nasopharyngeal carcinoma, tonsil cancer, floor of mouth cancer, oral cancer, laryngeal cancer and hypopharyngeal cancer, were all received intensity modulated radiotherapy after administration of anlotinib. The administration regimens are detailed below. Anlotinib: administered about one week before radiotherapy, 10 mg/day for a three-cycle treatment, consecutively two-week treatment and then one-week interruption, and whether the medicine was administered continuously was determined according to the change in tumors after radiotherapy. The efficacy evaluation observation indexes include 3-year overall survival (OS), […] (DFS), 3-year distant metastasis rate and local control rate. Patient, pathologically diagnosed with tonsil cancer, starting taking anlotinib hydrochloride capsules on Oct. 10, 2018 once daily, orally before breakfast at a dose of 10 mg each time, with consecutively two-week treatment and then one-week interruption; starting receiving radiation therapy on Oct. 15, 2018. Patient, pathologically diagnosed with nasopharyngeal carcinoma, starting taking anlotinib hydrochloride capsules on Nov. […]

[2] = test system: human laryngeal squamous cell carcinoma Hep-2 cell line; experiment: MTT cell growth inhibition, Hep-2 cell line; type: cell-based; conditions: MTT method, in vitro
Description: (§1) The test drugs were dissolved in dimethyl sulfoxide to prepare a 100 mmol/L stock solution, which was stored at −20° C. for later use. When in use, the stock solution was diluted with a DMEM serum culture medium to a desired concentration.
(§2) The human laryngeal squamous cell carcinoma Hep-2 cell line and the human laryngeal carcinoma TU212 cell line were separately cultured in a DMEM complete culture medium containing 10% fetal bovine serum and 0.1 g/L streptomycin and penicillin (the final concentration is 100 U·mL^−1), and the mixtures were incubated in an incubator at 37° C./5% CO2. When the cell fusion reached about 85%, the cells were mixed and digested using 0.02% EDTA and 0.25% trypsin, and then the cells were collected, centrifuged at 1000 r/min, and subcultured.
(§3) The IC50 value can be measured by a conventional method in the art (e.g., conventional MTT method), or can be measured by the following method (MTT method). […]
(§4) Half maximal inhibitory concentration IC50 was calculated according to inhibition rates at all concentrations using GraphPad Prism 5 software.

[3] = test system: human laryngeal carcinoma TU212 cell line; experiment: MTT cell growth inhibition, TU212 cell line; type: cell-based; conditions: MTT method, in vitro
Description: as §1, §2, §3, §4

[4] = test system: human oral squamous cell carcinoma scc4 cell line; experiment: MTT cell growth inhibition, scc4 cell line; type: cell-based; conditions: MTT method, in vitro
Description: as §1
(§5) The human oral squamous cell carcinoma scc4 cell line, the human oral squamous cell carcinoma CAL-27 cell line and the human oral squamous cell carcinoma HSC-4 cell line were separately cultured in a DMEM complete culture medium containing 10% fetal bovine serum and 0.1 g/L streptomycin and penicillin (the final concentration is 100 U·mL^−1), and the mixtures were incubated in an incubator at 37° C./5% CO2. When the cell confluence reached about 85%, the cells were mixed and digested using 0.02% EDTA and 0.25% trypsin, and then the cells were collected, centrifuged at 1000 r/min, and subcultured.
as §3, §4

[5] = test system: human oral squamous cell carcinoma CAL-27 cell line; experiment: MTT cell growth inhibition, CAL-27 cell line; type: cell-based; conditions: MTT method, in vitro
Description: as §1, §5, §3, §4

[6] = test system: human oral squamous cell carcinoma HSC-4 cell line; experiment: MTT cell growth inhibition, HSC-4 cell line; type: cell-based; conditions: MTT method, in vitro
Description: as §1, §5, §3, §4

SMILES	clinical benefits [1]	clinical benefits (head and neck cancer)	effect on the proliferation of the human laryngeal squamous cell carcinoma cells [2]	effect on the proliferation of the human laryngeal carcinoma cells [3]	effect on the proliferation of the human oral squamous cell carcinoma cells [4]	effect on the proliferation of the human oral squamous cell carcinoma cells [5]	effect on the proliferation of the human oral squamous cell carcinoma cells [6]
COc1cc2c(Oc3ccc4[nH]c(C)cc4c3F)ccnc2cc1OCC1(N)CC1 [anlotinib, 1-[[[4-(4-fluoro-2-methyl-1H-indol-5-yl)oxy-6-methoxyquinolin-7-yl]oxy]methyl]cyclopropylamine]	had clinical benefits	had clinical benefits	–	–	–	–	–
COc1cc2c(Oc3ccc4[nH]c(C)cc4c3F)ccnc2cc1OCC1(N)CC1 [dihydrochloride of the compound I]	–	–	clear inhibitory effect	clear inhibitory effect	clear inhibitory effect	clear inhibitory effect	clear inhibitory effect
